From patent US20250049664A1, “SKIN EXTERNAL APPLICATION COMPOSITION FOR SKIN BARRIER STRENGTHENING OR SKIN MOISTURIZING CONTAINING DEHYDROABIETIC ACID” (AMOREPACIFIC CORPORATION, priority 2018, published 2025) come the findings set out here.

Holding throughout (assay type): cell-based, human
Experiment [1] concerns the target T1, PPARα (Mus musculus, UniProt P23204).
T1 construct: expressed in transfected cells; host or cells: HaCaT (human keratinocytes), transiently transfected
T1 sequence (P23204 1-468): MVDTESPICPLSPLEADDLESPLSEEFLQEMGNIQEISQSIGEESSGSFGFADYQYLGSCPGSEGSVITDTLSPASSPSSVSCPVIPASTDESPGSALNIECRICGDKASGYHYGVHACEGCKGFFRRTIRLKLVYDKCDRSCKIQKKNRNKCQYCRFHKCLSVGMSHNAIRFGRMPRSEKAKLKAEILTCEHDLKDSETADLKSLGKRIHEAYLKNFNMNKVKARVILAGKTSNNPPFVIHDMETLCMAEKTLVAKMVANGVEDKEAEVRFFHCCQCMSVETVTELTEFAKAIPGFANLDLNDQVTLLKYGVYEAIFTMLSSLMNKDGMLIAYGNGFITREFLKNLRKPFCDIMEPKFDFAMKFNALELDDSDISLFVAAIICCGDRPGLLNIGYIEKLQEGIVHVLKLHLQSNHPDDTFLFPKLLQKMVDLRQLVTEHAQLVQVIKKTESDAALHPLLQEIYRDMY
The experiment is described as follows: PPARα activation, PPRE-luciferase reporter assay in transfected HaCaT cells. The settings on record: 10 μM; for PPARα activation (%): 24 hours, luciferase activity relative to ethanol negative control (100). An excerpt:
HaCaT cells, which are human keratinocytes, were subcultured in DMEM containing 10% fetal bovine serum. A phenol red-free medium was used to avoid the effect of phenol red on estrogen. The following plasmids were used: a plasmid having the PPARα gene downstream of a universal promoter which is expressed in general culture conditions; a plasmid having a PPAR response element (PPRE) activated by binding with ligand-bound PPAR as a promoter and a firefly luciferase gene reporter downstream of the promoter; and a reference plasmid having a β-galactosidase gene bound to a universal promoter [Kliewer, S. A., Forman, B. M., Blumberg, B., Ong, […]., Evans, R. M., Differential expression and activation of a family of murine peroxisome proliferator-activated receptors, Proc. Natl. Acad. Sci. USA, 91 (1994) 7355-7359.]. The HaCaT cells were seeded onto a 24-well plate at a density of 5×10^4 cells/well, cultured for 24 hours, and then transiently transfected with the plasmid genes. After 24 hours of culturing, followed by washing with phosphate-buffered saline (PBS), the ells were treated with dehydroabietic acid of Chemical Formula 1 purchased from Ramidus AB or WY14643, which is a PPARα ligand, as a positive control group at 10 μM. WY14643 is reported as a PPARα ligand which induces keratinocyte differentiation and strengthens skin barrier. A negative control group was treated with ethanol. After 24 hours of culturing, followed by washing with PBS, the cells were harvested and luciferase activity was measured. […] The result for each treatment group was represented relative to that of the negative control group.
A general note: Reporter assays use an easily measured gene product as a stand-in for the process of interest.

Experiment [2] deals with transglutaminase 1 (TGase 1) gene. The experiment is described as follows: Quantitative RT-PCR of TGase 1 gene expression in HaCaT cells. The settings on record: for Gene expression level (fold) TGase1: 24 hours, relative mRNA level vs ethanol negative control as 1. Here is the method: (§1) HaCaT cells were cultured in Dulbecco's modified Eagle's medium (DMEM, GIBCO 1210-0038) containing 10% fetal bovine serum. 1×10^6 cells were placed in a […] flask and cultured for 24 hours. Then, after treating with DMEM not containing fetal bovine serum and culturing for 24 hours, the cells were treated with dehydroabietic acid in a medium not containing fetal bovine serum for 24 hours. Then, after harvesting the cells and washing with cooled phosphate-buffered saline (PBS), total RNA was extracted by adding 1 mL of TRIzolTM reagent (Life Technologies, Inc.). Then, quantitative reverse transcriptase PCR was conducted. The primer sequences of PPARα. TGase 1, filaggrin and HAS 2 used to conduct PCR are described in Table 2. After adding 4 μg of total RNA to 25 μL of a reverse transcription buffer containing 50 mM Tris-HCl (pH 8.3), 75 mM KCl, 3 mM MgCl^2, 0.1 M DTT, 10 mM dNTP and 40 units/μL RNase inhibitor, 0.5 μg/μL oligo (dT)16 primer and 200 units of SuperScript II (GIBCO BRL) were added and incubation was conducted at 42° C. for 1 hour. Then, after mixing 2.5 μL of the reverse transcription solution with a 50 µL of a PCR buffer containing AmpliTaq DNA polymerase (0.04U, Perkin Elmer, Shelton, CT), 50 mM Tris (pH 8.3), 0.25 mg/mL bovine serum albumin, 3 mM MgCl2, 0.25 mM dNTPs and a 1/50,000 diluted solution of SYBR Green I (Molecular Probes, Eugene, OR), 10 μM of primers were added and PCR was conducted for 30 cycles of 30 seconds at 94° C., 30 seconds at 53°° C. and 1 minute at 72° C. Relative mRNA level was analyzed by measuring the change in the fluorescence of SYBR Green I using the ICycler software. WY14643, which is a PPARα ligand, was used as a positive control group. The relative mRNA level was represented relative to an ethanol-treated negative control group as 1. […] WY14643 is a PPARα ligand reported to induce keratinocyte differentiation and strengthen skin barrier.

Experiment [3] concerns hyaluronic acid synthase 2 (HAS 2) gene. Briefly: Quantitative RT-PCR of HAS 2 gene expression in HaCaT cells. The settings on record: for Gene expression level (fold) HAS 2: 24 hours, relative mRNA level vs ethanol negative control as 1. Here is the method:
as §1

For experiment [4], the system named is PPARα gene. Briefly: Quantitative RT-PCR of PPARα gene expression in HaCaT cells. The settings on record: for Gene expression level (fold) PPARα: 24 hours, relative mRNA level vs ethanol negative control as 1. Here is the method: as §1
Experiment [5] concerns filaggrin gene. The experiment is described as follows: Quantitative RT-PCR of filaggrin gene expression in HaCaT cells. The settings on record: for Gene expression level (fold) Filaggrin: 24 hours, relative mRNA level vs ethanol negative control as 1. Here is the method: as §1

Molecules are shown by their SMILES.

In the case of `Cc1cccc(Nc2cc(Cl)nc(SCC(=O)O)n2)c1C` [WY14643, reference compound], the “PPARα activation (%)” value in experiment [1] amounted to 286.9%. The “Gene expression level (fold) TGase1” value worked out at 2.13 fold in experiment [2] (1 μM) and 4.98 fold in experiment [2] (10 μM). In addition, the “Gene expression level (fold) HAS 2” value turned out to be 9.64 fold in experiment [3] (1 μM) and 35.93 fold in experiment [3] (10 μM). Further, the “Gene expression level (fold) PPARα” value in experiment [4] (1 μM) is 2.54 fold; in experiment [4] (10 μM), 5.96 fold. In addition, the “Gene expression level (fold) Filaggrin” value in experiment [5] (1 μM) turned out to be 1.86 fold; in experiment [5] (10 μM), 3.12 fold.

For `CC(C)c1ccc2c(c1)CC[C@H]1[C@](C)(C(=O)O)CCC[C@]21C` [Dehydroabietic acid, dehydroabietic acid], in experiment [1], the “PPARα activation (%)” value is reported as 291.5%. In addition, the “PPARα activation (luciferase activity), result in words” value in experiment [1] (compared with WY14643 positive control) is “induced PPARα activation”. The “Gene expression level (fold) TGase1” value in experiment [2] (1 μM) was 2.58 fold; in experiment [2] (10 μM), 5.94 fold. The “Expression of the transglutaminase 1 (TGase 1) gene, result in words” value in experiment [2] (treatment for 24 hours) is “significantly increased”. The “Gene expression level (fold) HAS 2” value stood at 12.4 fold in experiment [3] (1 μM) and 40.15 fold in experiment [3] (10 μM). The “Expression of the hyaluronic acid synthase 2 (HAS 2) gene, result in words” value in experiment [3] (treatment for 24 hours) is “significantly increased”. The “Gene expression level (fold) PPARα” value turned out to be 2.65 fold in experiment [4] (1 μM) and 6.16 fold in experiment [4] (10 μM). Besides, the “Expression of the PPARα gene, result in words” value in experiment [4] (treatment for 24 hours) is “significantly increased”. For the same molecule, the results for the “Gene expression level (fold) Filaggrin” value in experiment [5] (1 μM) and in experiment [5] (10 μM) were 2.31 fold and 3.34 fold, respectively. The “Expression of the filaggrin gene, result in words” value in experiment [5] (treatment for 24 hours) is listed as “significantly increased”.
